The source of these data is article PMC5557808 (Nature Communications, 2017).

Where only a bound is given, the exact number is not on record here.

For series [1], the system named is MMP-8. Nature of the series: MMP-8 in MMP-8 buffer. Particulars: human, 37 °C, up to 22 h.
For series [2], the system named is Leucine aminopeptidase (AP). Nature of the series: AP-incubated peptide (without MMP-8). Particulars: porcine kidney.
Series [3] relates to MMP-8. Nature of the series: MMP-8 buffer (200 mM NaCl, 50 mM Tris-HCl, 5 mM CaCl2, 1 µM ZnCl2, 0.05% Brij 35 at pH 6.8–7.0). As to conditions: human, 37 °C, up to 6 hours.
Series [4] concerns MMP-1, MMP-8, MMP-9, MMP-13. Kind of series: MMP selectivity of the soluble PCL carboxyfluorescein conjugate. The series is classed as biochemical, human. Particulars: MMPs at 900 ng/mL, 60 min, 37 °C; HPLC. Here is the method: (§1) Pro-MMPs (e.g., MMP-8, MMP-1, or MMP-9; used at 0.1 mg/mL and >100.0 mU/mg based on the manufacturer’s information) were activated with p-aminophenylmercuric acetate (APMA) (8). For that, a 10 mM stock solution of APMA was freshly prepared in 0.1 M NaOH and a 10:1 (v/v) ratio of the respective proenzyme and the APMA solution (MMP:APMA) was incubated for 3 h at 37 °C. The activity was confirmed using the MMP-8 detection kit (QuickZyme Biosciences, Leiden, the Netherlands). […]
Enzymatic reactions were stopped using 4 µL 250 mM ED TA in case of the sensor or heating in cas e of uncoupled PCL (95 °C for 15 minutes; the beads of the sensor would melt at h eatin g due to a different method used). Cleavage was analyzed by […] an al ysis (PCL) or by flow c yto metr y (sensor) in co mpar ison to negative controls (the negative controls for the PCL an d sensor exper i men ts were b y incubation without MMP under otherwise identical conditions). The relative d ecreas e of the PCL’s ma in peak was char act er ized by HPLC (PCL) or of the sensor’s fluorescence b y FACS (sensor) in comparison to control. […]

For series [5], the target named is T1, MMP-8 (Homo sapiens, UniProt P22894).
T1 construct: purchased EMD Millipore Corporation (Billerica, MA)
T1 sequence (P22894 101-467): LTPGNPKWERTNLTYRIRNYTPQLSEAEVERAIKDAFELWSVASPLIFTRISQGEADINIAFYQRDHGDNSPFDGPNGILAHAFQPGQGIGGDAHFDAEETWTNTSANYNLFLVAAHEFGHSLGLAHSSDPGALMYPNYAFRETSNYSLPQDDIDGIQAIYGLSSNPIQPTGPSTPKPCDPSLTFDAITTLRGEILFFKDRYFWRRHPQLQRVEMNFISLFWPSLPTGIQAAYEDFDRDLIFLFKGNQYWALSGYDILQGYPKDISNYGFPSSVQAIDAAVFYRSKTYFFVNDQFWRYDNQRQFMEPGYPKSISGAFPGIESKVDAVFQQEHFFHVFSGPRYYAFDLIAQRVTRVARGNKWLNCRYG
Nature of the series: MMP-8 cleavage of soluble PCL conjugates (HPLC decrease of main peak). Particulars: 900 ng/mL MMP-8, after 360 min; 0.5 mg/mL substrate, MMP-8 buffer pH 6.8-7.0, 37 °C under agitation; HPLC; mean, n = 8. It is filed as biochemical. Here is the method: as §1, with “Netherlands). A stock solution (90 µg/mL) of the activated MMP was prepared (used for cleavage studies on the PCL or the fully assembled microparticle-PCL-tastant setup (sensor), in MMP-8 buffer (200 mM NaCl, 50 mM Tris-HCl, 5 mM CaCl2, 1 µM ZnCl2, 0.05% Brij 35 at pH 6.8–7.0). All MMP experiments are described in detail in the Supplementary Methods.” for “Netherlands).”
in water ( v/v)) and eluent B (0.1 % TFA in 2:3 water-acetonitrile (v/v)) and a gradient from 33 to 80% elu ent B within 30 minutes. UV absorption was r ead at λ = 280 nm or 220 nm. After freezing the samples at -80 °C, fr eeze- drying was performed on a Christ Alpha 1 -4 de vi ce (Martin Christ Gefriertrocknungs anlagen, Osterode am Harz, G e r ma n y) at a desublimers ’ te mperature of - 60 ° C, pressure of 1.030 mbar and processing temperature of 19 °C.
Pro-MMPs (e. g. MMP -8, MMP -1 or MMP-9; adapted to 0.1 mg/mL and > 100.0 mU/mg based on manufacturer information and when appropriate) were activated with APMA 8. For that, a 10 mM stock solution of APMA in 0.1 M NaOH was freshly prepared and a 10:1 (v/v) ratio of the r especti ve proenzyme and APMA solution (MMP:APMA) was incubated for 3 h at 37 °C. The activity was conf ir med using the MMP-8 detection kit (Q uic kZ ym e® Biosciences, Leiden, Netherlands). A stock solution (90 µg/mL) of the activated MMP was prepared (used for cleavage studies on the pr ot eas e-cleavable linker (PCL; e.g. Figure 2) or the fully assemb led microparticle -PCL- t ast ant setup (sensor; e.g. Figure 3) , in MMP -8 buffer (200 mM NaCl, 50 mM Tris-H Cl, 5 mM C aC l2, 1 µM ZnCl2, 0.05 % Brij35 at pH 6.8- 7.0). A ll MMP -8 exp eriments wer e performed as follo ws. 25 µg of the sensor ( see chap ter : Peptide-coupling to beads (Sensor)) in 100 µL MMP-buffer or 1 mg of FP LC -purified and lyophilized PCL as described dissolved 2 mL M MP -buffer resulting in a final concentration of 0.5 mg/ mL substrate was used. […]
Figure 2A , 3, 4B ). […]
(sensor) in co mpar ison to negative controls (the negative controls for the PCL an d sensor exper i men ts were b y incubation without MMP under otherwise identical conditions). The relative d ecreas e of the PCL’s ma in peak was char act er ized by HPLC (PCL) or of the sensor’s fluorescence b y FACS (sensor) in comparison to control. […]

Series [6] concerns Leucine aminopeptidase from porcine kidney. Kind of series: AP buffer (50 mM Tris-HCl, 1 mM CaCl2 and 150 mM NaCl at pH 7.0). As to conditions: 37 °C, up to 20 h.
The next series concerns human tongue. As to conditions: cited from earlier work. Here is the method: Sensor design was driven by physiological insights on taste. Structurally diverse molecules are bitter tasting, including polyphenols, flavonoids, or methylxanthines (caffeine)[3]. The main function of sensing bitter taste is linked to the detection of poisonous substances. This would readily explain why bitter taste is so sensitively recognized with some molecules being recognized in the nanomolar range[4]. The human tongue senses bitterness of denatonium down to concentrations of 10 nM with consumer products containing as little as 30–100 ppm[5]. […] To date, it is the mo s t bitter substance known and th e b itter taste can be detected at concentrations of 10 ppb 2. Because of its lower toxicity as co mpar ed to the b itter molecules brucine 3 or str ychnin e it is wid el y used as an additive for denaturing alcohol, deter gents, dis ...

Series [7] deals with Leucine aminopeptidase (AP). Kind of series: AP buffer (50 mM Tris-HCl, 1 mM CaCl2, and 150 mM NaCl at pH 7.0). As to conditions: porcine kidney, 37 °C, up to 20 h.

Turning to De-GPQGIAGQ-A( N3)-Q, the cleaved bond entry in the series with MMP-8 [1] and in the series on MMP-8 [3] was “G-I” throughout. The not cleaved result in series [2] is “one HPLC-peak at 7.178 min with a mass of 1331.9 Da, as negative control”.
Turning to “Cf-GP QGIA GQ-A( N3)-Q [ID #1b, PCL carboxyfluorescein conjugate]”, in series [4], the “MMP sensitivity rank order of the soluble PCL conjugate” value is “MMP-8 = MMP-9 > MMP-13 > MMP-1”. For the same molecule, the “Cleavage (%) of the PCL over incubation time, plateau” value at MMP-8 [5] is reported as above 50%.
For De-GPQGIAGQ-A(N3)-Q, in series [6], the not cleaved entry was “one HPLC peak, mass 1331.9 Da after AP incubation”.
With `CC[N+](CC)(CC(=O)Nc1c(C)cccc1C)Cc1ccccc1` [Denatonium, Denatonium benzoate], in the series on human tongue, the “concentration down to which the human tongue senses bitterness” value is on record as 10 nM.
Turning to `CC[N+](CC)(CC(=O)Nc1c(C)cccc1C)Cc1ccccc1.[Cl-]` [Denatonium chloride], in the series on human tongue (ref 2 (Supplementary References)), the “concentration at which the bitter taste can be detected” value is given as 10 ppb.
Take I AGQ-K-De: the fragment found result in series [7] is “denatonium coupled to lysine”.
